According to patent US8759537B2, “3H-imidazo [4, 5-C] pyridine-6-carboxamides as anti-inflammatory agents” (Boehringer Ingelheim International GmbH, priority 2010, dated 2014):

Key:
mPGES-1 [1] = molecular target: T1, mPGES-1 (Homo sapiens (Human), UniProt O14684); experiment: A549 cell-based assay (PGE2 formation, IL-1β stimulated, 50% human serum); conditions: A549 cells
Description: Although the enzymatic assay is a high throughput assay the disadvantage is that it uses a recombinant protein which is not in its natural environment. Accordingly a cellular assay was established in which a cell line of human origin (A549) expressing the mPGES-1 protein was used. In addition in order to mimic the situation in humans in which compounds can be bound to plasma proteins 50% human serum is added in the assay.
Cells were detached using Trypsin-EDTA. A549 cells were seeded in a 384-well collagene plate at a density of 7000 cells/well (50 μl) in F-12 medium containing 1% Penicillin-Streptomycin and 50% human serum. The cells were allowed to attach for 3-4 h. […] The total volume is 100 μl.
Concentrations of PGE2 in the cell free medium (10 μl) were measured using a commercially available HTRF kit from Cisbio (as described above). The PGE2 formation in the absence of test compound was taken as 100%.
IC50 values were derived from at 6-8 point titrations using conventional software.

mPGES-1 [2] = molecular target: T1, mPGES-1; experiment: mPGES-1 enzyme assay (HTRF detection of PGE2); type: biochemical
Description: Microsomes from Rosetta E. coli bacteria expressing recombinant human mPGES-1 can be derived as described below:
Inoculate 5 ml LB with Ampicilin (50 μg/ml) and Chloramphenicol (34 μg/ml) with bacteria from freeze culture. Incubate 8 h at 37° C. with 200 rpm. Thereafter, inoculate 500-1000 ml LB containing Amp and Chloro with the 5 ml on culture and grow to OD640 of 0.8-1.0. Chill the culture to +4° C. before induction. Induce the culture with IPTG at a final concentration of 400 μM. Express the protein at room temp 18-23° C. with 200 rpm shaking over night.
The following steps can be performed on the following day: • 1. Spin down the cells in 250 ml centrifuge flasks for 15 min at 7000 rpm (Beckmann Coulte Avanti J-E centrifuge) • 2. Dissolve the pellet from 250 ml culture in 12.5 ml homogenization buffer • 3. (15 mM Tris-HCL pH8, 1 mM EDTA pH8, […], 2.5 mM GSH, 1 Tablet Protease inhibitor per 50 ml buffer) • 4. […] Add 2.5 ml MgCl2 (100 mM) and DNase 12.5 μl (0.8 mg/ml) and incubate on ice for 30 min • 6. Spin down the bacteria debris and save the supernatant, 7000 rpm for 15 min • 7. Isolate the protein containing membranes in the supernatant by ultracentrifugation 120000×g for 2 hour at 4° C. (Sorvall T880 rotor). • 8. Discard the supernatant and dissolve the pellet in 20 mM Potassium phosphate buffer pH7.4 (KH2PO4 and K2HPO4) buffer by sonication (5×10 s, 30% of a 50 W sonifier) and aliquot the enzyme and store aliquots at −80° C.
Before each experiment is performed an aliquot of the enzyme is thawed and it can then be dissolved in 0.1 M Potassium phosphate buffer pH7.4 (KH2PO4 and K2HPO4) buffer containing 2.5 mM GSH.
The aim of this assay is to determine the affinity of a test compound for the mPGES-1 enzyme.
47 μl of recombinant human mPGES-1 (˜0.5 μg protein/well) containing microsomal suspension in a buffer containing GSH, (2.5 mmol/L L-Glutathione reduced, dissolved in 0.1 mol/L Phosphat Buffer pH 7.4) is dispensed in a 384-well plate and thereafter 1 μl of the test compound(s) is/are added and incubated for 25 minutes at room temperature. The enzyme reaction is started by the addition of 2 ul PGH2 (final conc. 2 μM) dissolved in water-free Diglyme. After 60 seconds the reaction is terminated by addition of a stop solution containing FeCl2 (10 μL 0.074 mol/l FeCl2). The samples are diluted between 1:25 in PBS (Phosphate Buffered Saline). 10 μl of the diluted samples are transferred to 384-well low volume plate. In order to quantify the amount of PGE2 that has been formed, a homogenous time resolved fluorescent (HTRF) detecting of PGE2 has been performed using a commercially available kit from Cisbio according to the manufactures recommendation. […] Briefly, the diluted samples are mixed with 5 μl PGE2-d2 conjungate and 5 μl anti-PGE2 cryptate conjungate. After an incubation period of the plates over night, the fluorescence is measured by the use of an appropriate microplate reader.
The quantification plate contains also wells with different concentrations of PGE2 as calibration curve for the calculation of the PGE2 concentrations from the HTRF ratio values.
From all mPGES enzyme assay the background is subtracted and the IC50 is calculated over a nonlinear regression with conventional software.

[3] = IL-1β 5 ng/ml, read-out: mPGES-1 inhibitory effect in the cell assay, IC50
[4] = recombinant human mPGES-1 microsomes, PGH2 2 μM, read-out: mPGES-1 inhibitory effect in the enzyme assay, IC50
[5] = Table C comparison of selected benzimidazoles, read-out: Cell IC50
[6] = Table C comparison of selected benzimidazoles, read-out: Enzym IC50

T1 sequence (O14684 whole entry): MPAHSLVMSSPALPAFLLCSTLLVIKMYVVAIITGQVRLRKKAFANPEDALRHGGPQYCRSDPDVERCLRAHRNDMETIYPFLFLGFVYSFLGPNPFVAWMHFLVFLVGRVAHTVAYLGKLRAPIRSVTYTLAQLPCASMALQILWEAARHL

IC50 (mPGES-1 [1]; [3]) [nM]	IC50 (mPGES-1 [2]; [4]) [nM]	IC50 (mPGES-1 [1]; [5]) [nM]	IC50 (mPGES-1 [2]; [6]) [nM]	SMILES
79	4			Cn1c(Nc2c(F)ccc(CNC(=O)C(C)(C)C)c2F)nc2cc(C(=O)Nc3ccc(Br)cc3)c(F)cc21 [Example 9]
< 1	4			Cn1c(Nc2c(Cl)ccc(CNC(=O)C(C)(C)C)c2Cl)nc2cc(C(=O)NCc3ccccc3C(F)(F)F)c(OCC(F)F)cc21 [Example 35]
1	4			COC(=O)c1ccc(NC(=O)c2cc3nc(Nc4c(Cl)ccc(CNC(=O)C(C)(C)C)c4Cl)n(C)c3cc2OCC(F)F)s1 [Example 50]
2	3			Cn1c(Nc2c(Cl)ccc(CNC(=O)C(C)(C)C)c2Cl)nc2cc(C(=O)NCC(F)(F)F)c(OCC(F)F)cc21 [Example 58]
< 1	2			Cn1c(Nc2c(Cl)ccc(CNC(=O)C(C)(C)C)c2Cl)nc2cc(C(=O)Nc3ccc(Br)cc3)c(OCC(F)F)cc21 [Example 5, N-(4-Bromo-phenyl)-2-{2,6-dichloro-3-[(2,2-dimethyl-propionylamino)-methyl]-phenylamino}-6-(2,2-difluoro-ethoxy)-1-methyl-1H-benzimidazole-5-carboxylic acid amide]
9	1			Cn1c(Nc2c(F)ccc(CNC(=O)C(C)(C)C)c2F)nc2cc(C(=O)Nc3cccc(F)c3)c(OCC(F)F)cc21 [Example 72]
		< 1	2	Cn1c(Nc2c(Cl)ccc(CNC(=O)C(C)(C)C)c2Cl)nc2cc(C(=O)Nc3ccc(Br)cc3)c(OCC(F)F)cc21 [drawing 44]
2	1			Cn1c(Nc2c(Cl)ccc(CNC(=O)C(C)(C)C)c2Cl)nc2cc(C(=O)Nc3ccc(Cl)c(F)c3)c(F)cc21 [Example 19]
14	3			Cn1c(Nc2c(Cl)ccc(CNC(=O)C(C)(C)C)c2Cl)nc2cc(C(=O)NC3CC(F)(F)C3)c(F)cc21 [Example 20]
< 1	2			Cn1c(Nc2c(Cl)ccc(CNC(=O)C(C)(C)C)c2Cl)nc2cc(C(=O)NC3CCC(F)(F)CC3)c(OCC(F)F)cc21 [Example 64]
< 1	4			Cn1c(Nc2c(Cl)ccc(CNC(=O)C(C)(C)C)c2Cl)nc2cc(C(=O)Nc3ccc(Cl)c(F)c3)c(OCC(F)F)cc21 [Example 45]
4	1			Cn1c(Nc2c(Cl)ccc(CNC(=O)C(C)(C)C)c2Cl)nc2cc(C(=O)Nc3cccc(Cl)c3)c(F)cc21 [Example 18]
16	2			Cc1ccc(CNC(=O)C(C)(C)C)c(C)c1Nc1nc2cc(C(=O)Nc3ccc(F)c(Cl)c3)c(OCC(F)F)cc2n1C [Example 71]
< 1	4			Cn1c(Nc2c(Cl)ccc(CNC(=O)C(C)(C)C)c2Cl)nc2cc(C(=O)Nc3ccc(F)c(Cl)c3)c(OCC(F)F)cc21 [Example 29]
< 1	4			CC(NC(=O)c1cc2nc(Nc3c(Cl)ccc(CNC(=O)C(C)(C)C)c3Cl)n(C)c2cc1OCC(F)F)C(F)(F)F (centres unmarked) [Example 39]
25				Cn1c(Nc2c(Cl)ccc(CNC(=O)C3(C#N)CC3)c2Cl)nc2cc(C(=O)NCC(F)(F)F)c(OCC(F)F)cc21 [Example 113]
7				CCC(=O)NCc1ccc(Cl)c(Nc2nc3cc(C(=O)NCC(F)(F)F)c(OCC(F)F)cc3n2C)c1Cl [Example 111]
4				Cn1c(Nc2c(Cl)ccc(CNC(=O)C3(O)CC3)c2Cl)nc2cc(C(=O)Nc3ccc(F)c(Cl)c3)c(OCC(F)F)cc21 [Example 171]

Further lines, the compound ahead of its results:

SMILES	IC50 (mPGES-1 [1]; [3]) [nM]	IC50 (mPGES-1 [2]; [4]) [nM]	IC50 (mPGES-1 [1]; [5]) [nM]	IC50 (mPGES-1 [2]; [6]) [nM]
Cn1c(Nc2c(Cl)ccc(CNC(=O)C(C)(C)C)c2F)nc2cc(C(=O)N[C@H]3CC[C@H](C(F)(F)F)CC3)c(OCC(F)F)cc21 [Example 76]	2	3		
Cn1c(Nc2c(Cl)ccc(CNC(=O)N3CCC(F)(F)C3)c2Cl)nc2cc(C(=O)N[C@H]3CC[C@H](C(F)(F)F)CC3)c(OCC(F)F)cc21 [Example 81]	50	3		
Cn1c(Nc2c(Cl)ccc(CNC(=O)C(C)(C)C)c2Cl)nc2cc(C(=O)NCc3ccc(F)cc3C(F)(F)F)c(OCC(F)F)cc21 [Example 36]	< 1	4		
CC(C)(C)C(=O)NCc1ccc(Cl)c(Nc2nc3cc(C(=O)N[C@H]4CC[C@H](C(F)(F)F)CC4)c(F)cc3[nH]2)c1Cl [Example 12, N-(trans-4-Trifluoromethyl-cyclohex-1-yl)-2-{2,6-dichloro-3-[(2,2-dimethyl-propionylamino)-methyl]-phenylamino}-6-fluoro-1H-benzimidazole-5-carboxylic acid amide]	7	4		
Cn1c(Nc2c(Cl)ccc(CNC(=O)C(C)(C)C)c2Cl)nc2cc(C(=O)Nc3ccc(F)c(Cl)c3)c(OC3CCOC3)cc21 (centres unmarked) [Example 179]	< 1	1		
Cn1c(Nc2c(Cl)ccc(CNC(=O)C(C)(C)C)c2Cl)nc2cc(C(=O)NCC3CC3)c(OCC(F)F)cc21 [drawing 48]			1	4
Cn1c(Nc2c(F)ccc(CNC(=O)C(C)(C)C)c2F)nc2cc(C(=O)N[C@H]3CC[C@H](C(F)(F)F)CC3)c(F)cc21 [Example 10]	4	7		
COCC1(CNC(=O)c2cc3nc(Nc4c(Cl)ccc(CNC(=O)C(C)(C)C)c4Cl)n(C)c3cc2OCC(F)F)CCCC1 [Example 49]	1	4		
Cn1c(Nc2c(Cl)ccc(CNC(=O)C(C)(C)C)c2Cl)nc2cc(C(=O)N[C@H]3CC[C@H](C(F)(F)F)CC3)c(OCC(F)F)cc21 [Example 1, N-(trans-4-Trifluoromethyl-cyclohex-1-yl)-2-{2,6-dichloro-3-[(2,2-dimethyl-propionylamino)-methyl]-phenylamino}-6-(2,2-difluoro-ethoxy)-1-methyl-1H-benzimidazole-5-carboxylic acid amide]	< 1	2		
Cn1c(Nc2c(Cl)ccc(CNC(=O)C(C)(C)C)c2Cl)nc2cc(C(=O)NCC3CC3)c(OCC(F)F)cc21 [Example 53]	1	4		
CC(C)(C)C(=O)NCc1ccc(F)c(Nc2nc3cc(C(=O)Nc4ccc(F)c(Cl)c4)c(F)cc3[nH]2)c1F [Example 24]		3		
CCCC(=O)NCc1ccc(Cl)c(Nc2nc3cc(C(=O)Nc4ccc(F)c(Cl)c4)c(OCC(F)F)cc3n2C)c1Cl [Example 132]	2			
Cn1c(Nc2c(Cl)ccc(CNC(=O)C3(O)CC3)c2Cl)nc2cc(C(=O)NCC(F)(F)F)c(OCC(F)F)cc21 [Example 93]	66			
Cn1c(Nc2c(Cl)ccc(CNC(=O)c3cc[nH]n3)c2Cl)nc2cc(C(=O)NCC(F)(F)F)c(OCC(F)F)cc21 [Example 127]	85			
Cn1c(Nc2c(Cl)ccc(CNC(=O)C3CC(F)(F)C3)c2Cl)nc2cc(C(=O)Nc3ccc(F)c(Cl)c3)c(OCC(F)F)cc21 [Example 167]	6			
Cn1c(Nc2c(Cl)ccc(CNC(=O)C3(C)COC3)c2Cl)nc2cc(C(=O)Nc3ccc(F)c(Cl)c3)c(OCC(F)F)cc21 [Example 150]	1			
